Source: EPA's ToxValDB 9.5
Several values for one entry are separate records, joined by “and”; a condition that tells them apart may be missing. Equal entries are not always repeated.

Columns and labels:
Oncorhynchus mykiss = conditions: acute; duration: 96 hours; mortality
Rattus norvegicus = conditions: for LD50: acute
Apis mellifera = conditions: acute, mortality
Anas platyrhynchos = conditions: oral, mortality
Mus musculus = conditions: organ weight
Canidae = conditions: Dog Other
Bovidae = conditions: repeat dose other; oral; hematological
Pontoscolex corethrurus = conditions: acute; mortality
[1] = reproduction developmental, clinical signs
[2] = chronic, duration: 2 years, oral, diet
[3] = short-term, duration: 28 days, mortality
[4] = subchronic, duration: 90 days, oral, diet, F, Not specified, clinical chemistry

In the case of `C=CCc1ccc(O)c(OC)c1` [Eugenol], the LC50 (Oncorhynchus mykiss) is reported as 5.6 µg/mL and > 10 µg/mL, the NOAEL (Oryctolagus sp.; [1]) is reported as 100 mg/kg-day and the LD50 (Rattus norvegicus; oral, mortality) is reported as 1930 mg/kg. It also gave an NOAEL (Rattus norvegicus; chronic, duration: 2 years, body weight) of 300 mg/kg-day, an NOEL (Rattus norvegicus; developmental, development) of 250 mg/kg-day and an NOAEL (Rattus norvegicus; [1]) of 100 mg/kg-day.

`N#Cc1nn(-c2c(Cl)cc(C(F)(F)F)cc2Cl)c(N)c1S(=O)C(F)(F)F` (stereo not drawn) [Fipronil] showed an LD50 (Apis mellifera; dermal) of 0.00593 µg/piece and an LD50 (Apis mellifera; oral, unspecified) of 0.00417 µg/piece.

`O=c1c2cc(F)ccc2nc(-n2cncn2)n1-c1ccc(Cl)cc1Cl` [Fluquinconazole] gave an LD50 (Anas platyrhynchos; acute, unspecified) greater than 2000 mg/kg-day, an LD50 (Anas platyrhynchos; short-term, feed) greater than 210 mg/kg-day and an LD50 (Colinus virginianus; acute, oral, mortality) greater than 2000 mg/kg-day. It also gave an NOEL (Colinus virginianus; chronic) of 1.9 mg/kg-day, an LD50 (Rattus norvegicus; mortality) greater than 112 mg/kg-day and an NOAEL (Rattus norvegicus; chronic) of 0.9 mg/kg-day.

Work on `[Ca+2].[I-].[I-].[O-2].[O-2].[O-2].[O-2].[O-2].[O-2]` [Iodic acid (HIO3), calcium salt (2:1)] yielded an LEL (Gallus gallus; repeat dose other, no effects) of 5 mg/kg-day, an LEL (Gallus gallus; subchronic, duration: 35 days, oral, diet, M, no effects) of 5 mg/kg-day and an LEL (Sus scrofa; repeat dose other, Not specified, no effects) of 8 mg/kg-day. The LEL (Sus scrofa; short-term, Not specified, no effects) was 8 mg/kg-day.

`CC(C)O` [Isopropanol] gave an NOAEL (Oryctolagus sp.; reproduction developmental, duration: 13 days, oral, gavage, F, New Zealand, mortality) of 240 mg/kg-day.

Work on `Cc1ccc(C(C)C)cc1O` [Isopropyl-o-cresol] yielded an LEL (Sus scrofa; subchronic, duration: 6 weeks, oral, diet, M/F, Not specified, no effects) of 2000 mg/kg-day.

For `CC(C)C1C2CCC1c1c(NC(=O)c3cn(C)nc3C(F)F)cccc12` (stereo not drawn) [Isopyrazam], the LC50 (Colinus virginianus; acute, oral, diet, mortality) was 1310 mg/kg-day, the LD50 (Colinus virginianus; acute, oral, mortality) was greater than 2000 mg/kg-day and the NOEC (Colinus virginianus; reproduction developmental) was 32.5 mg/kg-day. It also gave an LD50 (Rattus norvegicus; oral, mortality) of 2000 mg/kg-day, an NOEL (Rattus norvegicus; chronic) of 41 mg/kg-day and an LOAEL (Rattus norvegicus; chronic, duration: 2 years, organ weight) of 5.5 mg/kg-day. It also gave an NOAEL (Rattus norvegicus; developmental, development) of 20 mg/kg-day and an NOAEL (Rattus norvegicus; reproduction developmental, duration: 2 years, body weight) of 8 mg/kg-day.

`CS(=O)(=O)c1cc(C(F)(F)F)ccc1C(=O)c1cnoc1C1CC1` [Isoxaflutole] gave an NOAEL (Oryctolagus sp.; developmental, development) of 5 mg/kg-day, an NOAEL (Rattus norvegicus; chronic, duration: 2 years, histopathology: nonneoplastic) of 2 mg/kg-day and an NOAEL (Rattus norvegicus; reproduction developmental, organ weight) of 2 mg/kg-day.

For `CC(O)(Cn1cncn1)c1ccc(Oc2ccc(Cl)cc2)cc1C(F)(F)F` (stereo not drawn) [Mefentrifluconazole], the NOAEL (Mus musculus; chronic, duration: 18 months) was 3.5 mg/kg-day, the NOAEL (Mus musculus; subchronic, duration: 90 days) was 2 mg/kg-day and the NOAEL (Oryctolagus sp.; developmental, development) was 15 mg/kg-day.

For `CCCCCCCCCCCCN(C)C` [N,N-Dimethyldodecan-1-amine], the NOAEL (reproduction developmental) was 50 mg/kg-day, the NOAEL (Rattus norvegicus; [2]) was 50 mg/kg-day and the NOAEL (Rattus norvegicus; [3]) was 50 mg/kg-day.

For `NC(N)=NCC(=O)O` [N-(Aminoiminomethyl)glycine], the LEL (Gallus gallus; subchronic, duration: 35 days, oral, diet, hematological) was 1500 mg/kg-day.

Work on `CN1CCCC1` [N-Methylpyrrolidine] yielded an NOAEL (reproduction developmental) of 50 mg/kg-day, an NOAEL (Rattus norvegicus; [2]) of 50 mg/kg-day and an NOAEL (Rattus norvegicus; [3]) of 50 mg/kg-day.

Work on `CCCCCCCCC(=O)NCc1ccc(O)c(OC)c1` [N-Vanillylnonanamide] yielded an NOEL (repeat dose other) of 8.4 mg/kg-day and an NOAEL (Rattus norvegicus; subchronic, duration: 90 days, oral, M/F) of 8.4 mg/kg-day.

In the case of `O=[N+]([O-])[O-]` [Nitrate], the NOEL (Canidae; chronic, duration: 125 days, growth) is reported as 370 mg/kg-day, the NOEL (Rattus norvegicus; chronic, duration: 2 years, growth) is reported as 370 mg/kg-day and the NOAEL (Sus scrofa; subchronic, duration: 84 days, Not specified, no effects) is reported as 410 mg/kg-day.

Work on `O=N[O-]` [Nitrite ion] yielded an NOAEL (Bovidae) of 3.3 mg/kg-day, an NOEL (Rattus norvegicus; chronic, duration: 2 years, oral, drinking water, gross pathology) of 6.7 mg/kg-day and an NOAEL (Sus scrofa; repeat dose other, oral, diet, Not specified, hematological) of 3.3 mg/kg-day.

Compound `C[C@@H]1Cc2c(Cl)cc(C(=O)N[C@@H](Cc3ccccc3)C(=O)O)c(O)c2C(=O)O1` [Ochratoxin A] has an LEL (Canidae; short-term, duration: 14 days, histopathology: nonneoplastic) of 0.2 mg/kg-day, an LEL (Gallus gallus; repeat dose other, oral, diet, organ weight) of 0.5 mg/kg-day and an LOAEL (Sus scrofa; [4]) of 0.008 mg/kg-day. The LOEL (Sus scrofa; [4]) was 0.008 mg/kg-day.

With `CCc1ncc(C)nc1CC` [Pyrazine, 2,3-diethyl-5-methyl-] the LC50 (Pontoscolex corethrurus) was 228 mg/kg.

Compound `CCc1nccnc1OC` [Pyrazine, 2-ethyl-3-methoxy-] has an LC50 (Pontoscolex corethrurus) of 243 mg/kg.

In the case of `O=C([O-])c1ccccc1.[Na+]` [Sodium benzoate], the LEL (Sus scrofa; repeat dose other, oral, diet, M/F, Not specified, no effects) is reported as 36000 mg/kg-day, the LEL (Sus scrofa; subchronic, duration: 36 days, oral, diet, Duroc, body weight) is reported as 36000 mg/kg-day and the LEL (Sus scrofa; subchronic, duration: 42 days, oral, diet, Not specified, body weight) is reported as 36000 mg/kg-day.

With `CC(c1ccc(C(F)(F)F)nc1)S(C)(=O)=NC#N` (stereo not drawn) [Sulfoxaflor] the LD50 (Apis mellifera; duration: 48 hours, oral, unspecified) was 0.146 µg/piece and the LD50 (Apis mellifera; duration: 72 hours, dermal) was 0.397 µg/piece.

`CCc1nc(C)cs1` [Thiazole, 2-ethyl-4-methyl-] gave an LC50 (Pontoscolex corethrurus) of 193 mg/kg.

Work on `O=C(O)C(O)Cn1cncn1` (stereo not drawn) [Triazole lactic acid] yielded an NOAEL (Oryctolagus sp.; developmental, development) of 30 mg/kg-day.

`CCCC(CCC)C(=O)O` [Valproic acid] gave an NOAEL (repeat dose other, development) of 600 mg/kg-day.
